The source of these data is US20160272617A1, “SUBSTITUTED PHENYLALANINE DERIVATIVES” (BAYER PHARMA AKTIENGESELLSCHAFT, priority 2013, published 2016).

Counter-ions that a name gives are not always drawn.

T1 sequence (P03951 388-625 limits assumed): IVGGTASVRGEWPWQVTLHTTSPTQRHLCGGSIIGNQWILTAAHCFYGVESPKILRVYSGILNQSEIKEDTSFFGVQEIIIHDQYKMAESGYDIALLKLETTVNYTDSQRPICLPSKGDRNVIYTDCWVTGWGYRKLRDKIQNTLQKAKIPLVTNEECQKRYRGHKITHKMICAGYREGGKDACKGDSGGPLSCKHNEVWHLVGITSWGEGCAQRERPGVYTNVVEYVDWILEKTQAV
T1 sequence (P03951 19-387 partner limits assumed): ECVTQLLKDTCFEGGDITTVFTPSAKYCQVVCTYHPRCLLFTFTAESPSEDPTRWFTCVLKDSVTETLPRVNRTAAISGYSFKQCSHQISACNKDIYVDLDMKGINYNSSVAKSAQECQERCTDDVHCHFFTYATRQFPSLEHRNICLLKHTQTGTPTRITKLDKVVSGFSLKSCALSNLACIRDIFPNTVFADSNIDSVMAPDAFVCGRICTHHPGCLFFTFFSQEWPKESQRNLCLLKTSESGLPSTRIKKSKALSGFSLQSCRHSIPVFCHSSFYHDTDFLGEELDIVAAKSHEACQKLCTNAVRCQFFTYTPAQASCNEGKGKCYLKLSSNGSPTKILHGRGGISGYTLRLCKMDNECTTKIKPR

This assay addresses T1, human factor XIa (Homo sapiens, UniProt P03951).
T1 construct: purchased Kordia
Nature of the assay: Measurement of FXIa inhibition (fluorogenic peptide substrate Boc-Glu(OBzl)-Ala-Arg-AMC). It is filed as biochemical. As to conditions: factor XIa from Kordia, 15 min preincubation, 30 min at 22° C., fluorescence. How it is done:
The factor XIa inhibition of the inventive substances is determined using a biochemical test system which utilizes the reaction of a peptidic factor XIa substrate to determine the enzymatic activity of human factor XIa. Here, factor XIa cleaves from the peptic factor XIa substrate the C-terminal aminomethylcoumarin (AMC), the fluorescence of which is measured. The determinations are carried out in microtitre plates.
Test substances are dissolved in dimethyl sulphoxide and serially diluted in dimethyl sulphoxide (3000 μM to 0.0078 μM; resulting final concentrations in the test: 50 μM to 0.00013 μM). In each case 1 μl of the diluted substance solutions is placed into the wells of white microtitre plates from Greiner (384 wells). Subsequently, the following are added successively: 20 μl of assay buffer (50 mmol/l Tris buffer pH 7.4; 100 mmol/l sodium chloride; 5 mmol/l calcium chloride; 0.1% bovine serum albumin) and 20 μl of factor XIa from Kordia (0.45 nM in assay buffer). After 15 min of incubation, the enzyme reaction is started by addition of 20 μl of the factor XIa substrate Boc-Glu(OBzl)-Ala-Arg-AMC dissolved in assay buffer (10 μM in assay buffer) from Bachem, the mixture is incubated at room temperature (22° C.) for 30 min and fluorescence is then measured (excitation: 360 nm, emission: 460 nm). The measured emissions of the test mixtures with test substance are compared to those of control mixtures without test substance (only dimethyl sulphoxide instead of test substance in dimethyl sulphoxide), and the IC50 values are calculated from the concentration/activity relationships.
Broadly, the IC50 is the concentration that gives 50% inhibition. Take `Cc1cc(C(=O)N[C@@H]2CCCCNC2=O)ccc1-c1ccc(C[C@H](NC(=O)[C@H]2CC[C@H](CN)CC2)C(=O)Nc2ccc(-c3nn[nH]n3)cc2)cc1` [Example 64, 4′-[(2S)-2-({[trans-4-(Aminomethyl)cyclohexyl]carbonyl}amino)-3-oxo-3-{[4-(2H-tetrazol-5-yl)phenyl]amino}propyl]-2-methyl-N-[(3R)-2-oxoazepan-3-yl]biphenyl-4-carboxamide hydrochloride]: the half-maximal inhibitory concentration (IC50) was determined as 1.6 nM. Consider `Cc1cc(C(=O)NC2CCC(N(C)C)CC2)ccc1-c1ccc(C[C@H](NC(=O)[C@H]2CC[C@H](CN)CC2)C(=O)Nc2ccc(-c3nn[nH]n3)cc2)cc1` (stereo partly drawn) [Example 70, 4′-[(2S)-2-({[trans-4-(Aminomethyl)cyclohexyl]carbonyl}amino)-3-oxo-3-{[4-(2H-tetrazol-5-yl)phenyl]amino}propyl]-N-[4-(dimethylamino)cyclohexyl]-2-methylbiphenyl-4-carboxamide hydrochloride], for which the IC50 amounted to 1.6 nM. `COc1cc(C(=O)N[C@@H]2CCNC2)ccc1-c1ccc(C[C@H](NC(=O)[C@H]2CC[C@H](CN)CC2)C(=O)Nc2ccc(-c3nn[nH]n3)cc2)cc1` [Example 71, 4′-[(2S)-2-({[trans-4-(Aminomethyl)cyclohexyl]carbonyl}amino)-3-oxo-3-{[4-(2H-tetrazol-5-yl)phenyl]amino}propyl]-2-methoxy-N-[(3R)-pyrrolidin-3-yl]biphenyl-4-carboxamide hydrochloride] displayed a concentration for half-maximal inhibition (IC50) of 7.4 nM. With `Cc1cc(C(=O)N[C@H]2CC[C@H](O)CC2)ccc1-c1ccc(C[C@H](NC(=O)[C@H]2CC[C@H](CN)CC2)C(=O)Nc2ccc(-c3nnc(C(F)(F)C(F)(F)C(=O)O)[nH]3)cc2)cc1` (single isomer, unassigned; enantiomer 1) [Example 168], the IC50 was 0.5 nM. The value for `Cc1cc(C(=O)N[C@@H]2CCNC2)ccc1-c1ccc(C[C@H](NC(=O)[C@H]2CC[C@H](CN)CC2)C(=O)Nc2ccc(-c3nc(C(F)(F)C(F)(F)F)n[nH]3)cc2)cc1` [Example 75, 4′-[(2S)-2-({[trans-4-(Aminomethyl)cyclohexyl]carbonyl}amino)-3-oxo-3-({4-[3-(pentafluoroethyl)-1H-1,2,4-triazol-5-yl]phenyl}amino)propyl]-2-methyl-N-[(3R)-pyrrolidin-3-yl]biphenyl-4-carboxamide hydrochloride] was 2.5 nM; that for `CNC(=O)c1ccc(-c2ccc(C[C@H](NC(=O)[C@H]3CC[C@H](CN)CC3)C(=O)Nc3ccc(-c4nn[nH]n4)cc3)cc2)c(C)c1` [Example 19, 4′-[(2S)-2-({[trans-4-(Aminomethyl)cyclohexyl]carbonyl}amino)-3-oxo-3-{[4-(2H-tetrazol-5-yl)phenyl]amino}propyl]-N,2-dimethylbiphenyl-4-carboxamide] was 2.9 nM. The compound `Cc1cc(C(=O)NC(CN(C)C)CN(C)C)ccc1-c1ccc(C[C@H](NC(=O)[C@H]2CC[C@H](CN)CC2)C(=O)Nc2ccc(-c3nn[nH]n3)cc2)cc1` [Example 66, 4′-[(2S)-2-({[trans-4-(Aminomethyl)cyclohexyl]carbonyl}amino)-3-oxo-3-{[4-(2H-tetrazol-5-yl)phenyl]amino}propyl]-N-[1,3-bis(dimethylamino)propan-2-yl]-2-methylbiphenyl-4-carboxamide hydrochloride] gave a concentration for half-maximal inhibition (IC50) of 29 nM. `Cc1cc(C(=O)NC2CCNCC2)ccc1-c1ccc(C[C@H](NC(=O)[C@H]2CC[C@H](CN)CC2)C(=O)Nc2ccc(-c3nn[nH]n3)cc2)cc1` [Example 1, 4′-[(2S)-2-({[trans-4-(Aminomethyl)cyclohexyl]carbonyl}amino)-3-oxo-3-{[4-(2H-tetrazol-5-yl)phenyl]amino}propyl]-2-methyl-N-(piperidin-4-yl)biphenyl-4-carboxamide hydrochloride] returned an IC50 of 2 nM.
